Laboratory results: ChEMBL document CHEMBL1148572, “1-((S)-2-aminopropyl)-1H-indazol-6-ol: a potent peripherally acting 5-HT2 receptor agonist with ocular hypotensive activity” (J Med Chem, 2006)
pEC50: −log10 of the molar value.

Key:
[1] = biological target: L-type calcium channel, dihydropyridine site (Homo sapiens, UniProt O60840+Q01668+Q13698+Q13936); test: Inhibitory activity at dihydropyridine site of Calcium channel L type at 100 nM; type: protein assay
[2] = biological target: T1, Atrial natriuretic peptide receptor 1 (Homo sapiens) (UniProt P16066); test: Inhibition of ANP A at 10 uM
T1 sequence (whole entry): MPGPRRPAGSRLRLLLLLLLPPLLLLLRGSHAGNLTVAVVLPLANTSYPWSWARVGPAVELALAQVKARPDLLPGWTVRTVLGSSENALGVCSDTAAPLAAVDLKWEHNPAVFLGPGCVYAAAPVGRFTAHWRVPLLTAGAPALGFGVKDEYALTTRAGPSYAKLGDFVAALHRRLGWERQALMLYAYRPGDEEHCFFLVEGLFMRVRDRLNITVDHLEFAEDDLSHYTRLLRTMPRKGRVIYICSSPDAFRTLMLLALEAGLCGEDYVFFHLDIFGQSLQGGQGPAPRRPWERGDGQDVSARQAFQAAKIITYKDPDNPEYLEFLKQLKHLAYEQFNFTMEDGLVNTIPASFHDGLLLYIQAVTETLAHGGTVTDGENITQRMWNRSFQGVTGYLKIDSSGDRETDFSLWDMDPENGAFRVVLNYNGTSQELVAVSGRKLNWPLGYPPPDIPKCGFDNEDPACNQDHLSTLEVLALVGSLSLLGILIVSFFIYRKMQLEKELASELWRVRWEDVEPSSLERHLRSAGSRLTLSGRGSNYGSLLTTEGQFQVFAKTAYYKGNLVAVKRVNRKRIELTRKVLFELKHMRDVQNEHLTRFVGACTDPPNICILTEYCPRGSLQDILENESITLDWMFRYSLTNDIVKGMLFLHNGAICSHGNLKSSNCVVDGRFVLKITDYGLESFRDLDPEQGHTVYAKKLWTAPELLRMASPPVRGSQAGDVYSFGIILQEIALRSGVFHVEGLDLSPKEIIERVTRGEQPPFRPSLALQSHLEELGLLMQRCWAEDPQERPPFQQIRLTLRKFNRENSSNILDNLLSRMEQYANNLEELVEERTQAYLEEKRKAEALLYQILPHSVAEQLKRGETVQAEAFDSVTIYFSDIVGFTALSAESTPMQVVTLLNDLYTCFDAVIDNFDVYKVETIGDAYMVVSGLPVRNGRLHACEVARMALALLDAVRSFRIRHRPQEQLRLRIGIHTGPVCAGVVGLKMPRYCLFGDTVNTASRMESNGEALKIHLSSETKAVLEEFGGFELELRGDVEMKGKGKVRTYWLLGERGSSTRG

[3] = biological target: T2, Alpha-2A adrenergic receptor (Homo sapiens, UniProt P08913); test: Activity at adrenergic alpha2A receptor expressed in human clonic adenocarcinoma HT29 cell by […]; type: functional, cell-based, HT-29
T2 sequence (P08913 whole entry): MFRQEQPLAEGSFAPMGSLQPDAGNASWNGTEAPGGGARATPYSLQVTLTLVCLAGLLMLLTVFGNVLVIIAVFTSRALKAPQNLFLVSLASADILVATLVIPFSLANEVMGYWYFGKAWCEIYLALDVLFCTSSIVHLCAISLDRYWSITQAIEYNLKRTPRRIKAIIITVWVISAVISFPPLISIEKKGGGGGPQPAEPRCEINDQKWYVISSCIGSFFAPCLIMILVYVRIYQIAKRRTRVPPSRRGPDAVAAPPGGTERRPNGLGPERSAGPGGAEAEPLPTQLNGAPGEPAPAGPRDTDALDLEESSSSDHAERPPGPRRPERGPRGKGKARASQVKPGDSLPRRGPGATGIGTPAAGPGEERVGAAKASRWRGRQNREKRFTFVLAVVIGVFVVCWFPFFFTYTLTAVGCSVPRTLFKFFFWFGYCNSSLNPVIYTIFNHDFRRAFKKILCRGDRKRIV

[4] = biological target: T3, monoamine oxidase B (MAO-B) (Rattus norvegicus, UniProt P19643); test: Inhibition of monoamine oxidase B in rat brain at 10 uM; type: tissue-based
T3 sequence (P19643 whole entry): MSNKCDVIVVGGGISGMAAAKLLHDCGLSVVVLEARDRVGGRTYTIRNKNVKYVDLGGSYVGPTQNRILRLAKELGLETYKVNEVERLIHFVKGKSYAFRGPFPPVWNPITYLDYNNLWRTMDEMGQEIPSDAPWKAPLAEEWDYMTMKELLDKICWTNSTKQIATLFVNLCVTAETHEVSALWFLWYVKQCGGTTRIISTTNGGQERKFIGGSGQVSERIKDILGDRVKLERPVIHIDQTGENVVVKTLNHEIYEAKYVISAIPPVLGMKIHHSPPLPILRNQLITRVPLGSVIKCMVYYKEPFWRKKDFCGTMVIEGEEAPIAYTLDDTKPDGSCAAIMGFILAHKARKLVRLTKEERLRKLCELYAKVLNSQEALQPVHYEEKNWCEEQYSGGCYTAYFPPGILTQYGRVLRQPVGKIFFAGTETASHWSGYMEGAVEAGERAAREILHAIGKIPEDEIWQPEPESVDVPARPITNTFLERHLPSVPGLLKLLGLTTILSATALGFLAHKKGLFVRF

[5] = biological target: Glutamate [NMDA] receptor (Homo sapiens) (UniProt Q05586+Q12879+Q13224+O15399+O60391+Q14957+Q8TCU5); test: Inhibition of agonist site of NMDA receptor at 10 uM; type: functional
[6] = Inhibition of P2Y purinergic receptor at 10 uM
[7] = biological target: T4, Estrogen receptor (Homo sapiens) (UniProt Q92731+P03372); test: Inhibition of estrogen receptor at 10 uM; type: protein assay
[8] = biological target: T5, 5-hydroxytryptamine receptor 1A (Homo sapiens, UniProt P08908); test: Agonistic activity at cloned human 5HT1A receptor expressed in CHO cells by inhibition of forskolin-induced cAMP production; type: functional, cell-based
T5 sequence (P08908 whole entry): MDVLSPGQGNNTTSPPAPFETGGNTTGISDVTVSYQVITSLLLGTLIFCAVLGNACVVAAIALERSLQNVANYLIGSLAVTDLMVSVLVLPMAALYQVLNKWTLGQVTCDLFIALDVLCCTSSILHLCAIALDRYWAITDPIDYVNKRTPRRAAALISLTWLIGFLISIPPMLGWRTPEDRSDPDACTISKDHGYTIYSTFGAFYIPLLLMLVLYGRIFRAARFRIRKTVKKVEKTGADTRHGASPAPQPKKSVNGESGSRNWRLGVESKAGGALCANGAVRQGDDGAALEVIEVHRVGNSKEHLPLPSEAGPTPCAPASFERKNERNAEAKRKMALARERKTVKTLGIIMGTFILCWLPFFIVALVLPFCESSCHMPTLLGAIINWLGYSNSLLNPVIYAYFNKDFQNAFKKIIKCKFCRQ

[9] = biological target: 5-hydroxytryptamine receptor 2A (Rattus norvegicus) (UniProt P14842); test: (§1) Activity against 5HT2A mediated intracellular calcium mobilization by FLIPR in rat vascular smooth muscle cells; type: functional, cell-based
[10] = biological target: 5-hydroxytryptamine receptor 2A (Rattus norvegicus, UniProt P14842); test: as §1; type: functional, cell-based
[11] = biological target: T4, Estrogen receptor (Homo sapiens); test: Inhibition of estrogen receptor at 100 nM; type: protein assay
[12] = biological target: Leukotriene B4 receptor (Homo sapiens) (UniProt Q9NPC1+Q15722); test: Inhibition of leukotriene B4 at 100 nM; type: protein assay
Chain of Leukotriene B4 receptor (Homo sapiens) (Q15722 whole entry, looked up): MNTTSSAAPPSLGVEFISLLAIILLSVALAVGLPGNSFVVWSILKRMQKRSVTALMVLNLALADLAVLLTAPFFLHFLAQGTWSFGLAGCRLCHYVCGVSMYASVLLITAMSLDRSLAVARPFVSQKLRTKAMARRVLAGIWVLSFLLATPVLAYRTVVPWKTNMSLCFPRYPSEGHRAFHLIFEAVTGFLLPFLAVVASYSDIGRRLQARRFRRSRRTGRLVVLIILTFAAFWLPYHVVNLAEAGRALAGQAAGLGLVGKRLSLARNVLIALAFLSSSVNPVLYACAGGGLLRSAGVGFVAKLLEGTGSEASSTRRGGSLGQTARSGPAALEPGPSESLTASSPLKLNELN
Chain of Leukotriene B4 receptor (Homo sapiens) (Q9NPC1 whole entry, looked up): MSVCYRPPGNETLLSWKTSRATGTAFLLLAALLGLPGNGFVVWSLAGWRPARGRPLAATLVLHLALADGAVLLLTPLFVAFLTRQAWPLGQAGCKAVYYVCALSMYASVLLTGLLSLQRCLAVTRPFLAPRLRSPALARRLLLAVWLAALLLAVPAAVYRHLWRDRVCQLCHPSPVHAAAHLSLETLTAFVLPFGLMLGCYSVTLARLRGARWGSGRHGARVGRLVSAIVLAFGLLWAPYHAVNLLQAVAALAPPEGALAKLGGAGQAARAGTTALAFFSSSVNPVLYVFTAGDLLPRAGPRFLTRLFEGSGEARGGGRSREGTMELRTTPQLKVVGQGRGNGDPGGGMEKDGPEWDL

Chain of 5-hydroxytryptamine receptor 2A (Rattus norvegicus) (P14842 whole entry): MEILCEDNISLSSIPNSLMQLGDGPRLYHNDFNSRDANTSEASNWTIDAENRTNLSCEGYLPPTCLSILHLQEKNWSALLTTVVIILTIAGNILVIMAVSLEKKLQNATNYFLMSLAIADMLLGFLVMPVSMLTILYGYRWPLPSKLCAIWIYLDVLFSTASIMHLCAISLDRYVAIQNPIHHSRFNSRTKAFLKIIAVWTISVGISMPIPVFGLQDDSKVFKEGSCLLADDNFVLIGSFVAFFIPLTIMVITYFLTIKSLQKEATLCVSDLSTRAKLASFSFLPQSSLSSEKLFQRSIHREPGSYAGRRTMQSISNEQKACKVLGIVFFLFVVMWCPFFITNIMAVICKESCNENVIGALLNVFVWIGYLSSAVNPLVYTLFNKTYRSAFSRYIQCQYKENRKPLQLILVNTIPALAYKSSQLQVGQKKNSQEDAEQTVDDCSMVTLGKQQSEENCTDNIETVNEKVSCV
Chain of 5-hydroxytryptamine receptor 2A (P14842 whole entry): as above

`C[C@H](N)Cn1ncc2ccc(O)cc21` gave an inhibition at 0.1 µM [1] of 12%, an inhibition [2] of -5.3% and a pEC50 [3] of 5.59. The inhibition at 10 µM [4] was -18.4%, the inhibition [5] was 9.07% and the inhibition [6] was 12.2%. It also gave an inhibition [7] of 17.7%, a pEC50 [8] of 5.84 and an Emax [9] of 81%. The pEC50 [10] was 7.37, the inhibition [11] was 13.3% and the inhibition [12] was 15.8%.
